Earlier results in patent US20220305055A1, “PHARMACEUTICAL CO[…]” (Zincum, Inc., priority 2016, published 2022).

Test system: diabetic rats
Conditions: zinc chloride administered

Question: For [Cl-].[Cl-].[Zn+2] [zinc chloride], which hyperglycemia is on record?
Answer: hyperglycemia improved
